Patent US20100278789A1, “METHODS OF GENERATING EXPANDED AND RE-DIFFERENTIATED ADULT ISLET BETA CELLS CAPABLE OF PRODUCING INSULIN” (priority 2007, published 2010)

How the values were obtained:
[1] = test system: eGFP+ human islet cells; test: Insulin immunostaining of eGFP+ islet cells incubated with diazoxide after viral infection; type: cell-based; design: dose or concentration left out as unconfirmed; conditions: diazoxide following viral infection, days 5-6 of culture
[2] = test system: Beta cell derived labeled cells at P5; test: Insulin expression (RT-PCR) in beta cell derived labeled cells treated with gamma-secretase inhibitor; type: cell-based, human; conditions: 300 nM, 4 days, vs untreated or DMSO
Description: Beta cell derived labeled cells at P5 treated for 4 days with 300 nM gamma-secretase inhibitor (S,S)-2-[2-(3,5-difluorophenyl)acetylamino]-N-(5-methyl-6-oxo-6,7-dihydro-5H-dibenzo [b,d]azepin-7-yl)propionamide (DBZ). Control cells were either untreated, or treated with DMSO (solvent). Medium with compound was changed every 48 hours.
RT-PCR analyses: As described for Example 1.

[3] = test system: cultured human islet cells; test: Immunoblotting for cleaved PARP (apoptosis) in islet cells; type: cell-based
Description: (§1) HES1 inhibition and lineage tracing: HES1 shRNA ([…])—SEQ ID NO: 7 and a non-target shRNA, cloned in pLKO.1 lentiviral vector, were obtained from the RNAi Consortium (Sigma-Aldrich). Virus was produced in 293T cells following cotransfection with the pCMVdR8.91 and pMD2.G packaging plasmids. The culture medium was harvested 48 hours later. Islet cells cultured for 1-2 days were washed with PBS and infected at MOI 2.5:1 in CMRL 1066 medium containing 8 μg/ml polybrene overnight. The medium was then replaced with regular culture medium. Four days after infection, the cells were selected for puromycin resistance (1 μg/ml) for 3 days. Two weeks after infection the cells were harvested for further analysis. Lineage tracing was performed using the RIP-Cre and a pTrip CMV-loxP-DsRed2-loxP-eGFP viruses as described herein below. Briefly, islet cells cultured for 1-2 days were infected with a 1:1:1 mixture of the 3 viruses (shRNA+RIP-Cre+pTrip CMV-loxP-DsRed2-loxP-eGFP) at a total MOI 4:1. Selection and further analysis were carried out as above.
(§2) Immunoblotting: Total cellular protein was extracted in 0.5% NP40 containing a protease inhibitor cocktail (Roche). Protein concentration was determined by the BCA method (Pierce, Rockford, Ill.). […] Loading was monitored using goat-anti-beta-actin (Santa Cruz, 1:1000). […]

[4] = test system: cultured human islet cells; test: Insulin immunostaining of islet cells and eGFP+ cells after HES1 shRNA infection; type: cell-based
Description: as §1
(§3) Immunofluorescence: Cells were plated in 24-well plates on sterilized coverslips and fixed in 4% paraformaldehyde. Cells were permeabilized with 0.25% NP40 for 10 minutes and blocked for 10 minutes at room temperature in 1% bovine serum albumin, 10% FBS, and 0.2% saponin. […]

[5] = test system: sorted eGFP+ cells derived from beta cells; test: HES1 shRNA in sorted eGFP+ cells expanded 7 population doublings, qRT-PCR and morphology; type: cell-based, human
Description: Virus was produced in 293T cells following cotransfection with the pCMVdR8.91 and pMD2.G packaging plasmids. The culture medium was harvested 48 hours later. […] They were then infected with HES1 or nontarget shRNA viruses, and 4 days later trypsinized and shifted to serum free medium (SFM). RNA was extracted following 4 more days and analyzed by qRT-PCR.
RNA analyses: As described for Example 1.

[6] = test system: cultured human islet cells; test: qPCR analysis of RNA from islet cells 14 days after HES1 shRNA infection; type: cell-based; conditions: 14 days after infection
Description: as §1
RNA analyses: Total RNA was extracted using High Pure RNA isolation kit (Roche). cDNA was synthesized using SuperScript III (Invitrogen). qPCR was performed using a Prism 7300 ABI Real Time PCR System (Applied Biosystems). Relative quantitative analysis was performed according to the comparative CT method by using the arithmetic formula 2̂^−(ΔΔct). The cDNA levels were normalized to human ribosomal protein P0 (RPLP0) cDNA.

[7] = test system: cultured human islet cells; test: Replication of cultured islet cells (BrdU incorporation, Ki67 staining) after HES1 shRNA infection; type: cell-based; conditions: 14 days after infection
Description: as §1, §3

[8] = test system: dedifferentiated human islet cells expanded in culture; test: Redifferentiation of dedifferentiated expanded human islet cells by HES1 shRNA (immunoblotting, RT-PCR, insulin ELISA, morphology); type: cell-based
Description: Human islet cells were cultured for 4-5 weeks as described for Example 1. They were then infected with lentiviruses expressing HES1 (SEQ ID NO: 7) or nontarget shRNAs. Nine days following infection the cells were analyzed as described for Example 1. Primers used for RT-PCR analysis are described in Table 1, herein above, […]

[9] = test system: HES1; test: Immunoblotting for HES1 in islet cells infected at culture initiation with HES1 shRNA virus; type: cell-based, human; conditions: islet cells infected after 1-2 days of culture, analysed 14 days after infection
Description: as §1, §2

[10] = test system: HES1; test: Screening of 4 HES1 shRNA sequences in 293T cells, HES1 immunoblotting; type: cell-based
Description: Immunoblotting: Total cellular protein was extracted in 0.5% NP40 containing a protease inhibitor cocktail (Roche). Protein concentration was determined by the BCA method (Pierce, Rockford, Ill.). 70 μg protein were separated on 12% sodium dodecyl sulphate-polyacrylamide gels and electroblotted onto PDF membranes. The membranes were incubated with rabbit-anti-HES1 (1:1000) or rabbit-anti-PARP (Cell Signaling, 1:1000). Loading was monitored using goat-anti-beta-actin (Santa Cruz, 1:1000). The bound antibody was visualized with the appropriate horseradish peroxidase-conjugated anti-IgG (Jackson) and SuperSignal West Pico Chemiluminescent Substrate (Pierce). Cells treated with 1 μm staurosporine for 6 hours were used as positive control for the PARP blot.
Inhibition of HES1 expression prevents induction of beta-cell replication: To further correlate the induction of beta-cell replication with HES1 upregulation, HES1 induction during the initial weeks of culture was inhibited using shRNA. […] Isolated human islets were dissociated, and the cells were infected with a lentivirus encoding HES1 shRNA before culture under standard conditions. Selection for drug resistance allowed elimination of uninfected cells. Cells infected with a non-target shRNA lentivirus and selected under similar conditions served as control. […]

[11] = cells cultured 4-5 weeks, 9 days after infection, immunoblotting

CC1=NS(=O)(=O)c2cc(Cl)ccc2N1 [diazoxide]
fraction of eGFP+ cells that were insulin-positive [1]: 84.8±5.8%

C[C@H](NC(=O)Cc1cc(F)cc(F)c1)C(=O)N[C@@H]1C(=O)N(C)c2ccccc2-c2ccccc21 [gamma secretase inhibitor, (S,S)-2-[2-(3,5-difluorophenyl)acetylamino]-N-(5-methyl-6-oxo-6,7-dihydro-5H-dibenzo [b,d]azepin-7-yl)propionamide]
insulin expression [2]: increase

CN[C@@H]1C[C@H]2O[C@@](C)([C@@H]1OC)n1c3ccccc3c3c4c(c5c6ccccc6n2c5c31)C(=O)NC4 [staurosporin, staurosporine, reference compound]
PARP cleavage, immunoblotting (positive control) ([3]; uninfected cells, 1 μm staurosporine for 6 hours): cleaved PARP

TGGCCAGTTTGCTTTCCTCAT (chemistry not given here) [HES1 shRNA, HES1 shRNA cloned in pLKO.1 lentiviral vector, obtained from the RNAi Consortium (Sigma-Aldrich)]
fraction of insulin-positive cells among eGFP+ cells, higher [4]: 3 fold | number of insulin-positive cells, higher than control virus ([4]; p<0.016): 4 fold | upregulation of transcripts encoding insulin, PDX1, NEUROD1, IAPP, and PC1 ([5]; eGFP+ vs eGFP− cells, qRT-PCR): occurred preferentially in eGFP^+ cells | induction of beta-cell transcripts, combination of SFM with HES1 shRNA ([5]; shRNA infection, 4 days later shifted to SFM, RNA after 4 more days): pronounced additive effect | morphological changes in response to HES1 shRNA, eGFP+ compared with eGFP− cells ([5]; sorted cells): much more pronounced in eGFP^+ cells | cell apoptosis, immunoblotting for cleaved PARP ([3]; HES1 shRNA virus vs non-target virus, 14 days after infection): did not correlate with an increase in cell apoptosis | insulin transcripts, lower compared with primary islets [6]: 20 fold | levels of NOTCH transcripts [6]: did not affect | levels of PDX1 and NEUROD1 transcripts relative to primary islets [6]: comparable to those in primary islets | insulin transcripts, higher compared with cells infected with control virus ([6]; p<0.01): 5.7 fold | p57 transcripts, higher than in cells infected with control virus ([6]; p<0.04): 5.7 fold | PDX1 transcript levels, higher than control virus ([6]; p<0.05): 5.6 fold | NEUROD1 transcript levels, higher than control virus ([6]; p<5.45×10^−5): 3.7 fold | replication rate, Ki67 staining in eGFP+ cells derived from beta cells [7]: lower replication rate | cell proliferation, staining for BrdU incorporation ([7]; compared with control vector): diminished cell proliferation | insulin expression by insulin ELISA and immunostaining ([8]; 9 days after infection): increase | NEUROD1 transcripts ([8]; 9 days after infection, RT-PCR): significant increase | PDX1 transcripts ([8]; 9 days after infection, RT-PCR): significant increase | insulin transcripts ([8]; 9 days after infection, RT-PCR): significant increase | p57, RNA analysis ([8]; 9 days after infection, RT-PCR): increase | cellular HES1 protein levels [8, 11]: decrease | p57 levels (protein) [8, 11]: increase | morphological change ([8]; cells expressing HES1 shRNA): tended to form clusters | HES1 protein levels, lower compared with cells infected with the control virus [9]: up to 6 × | efficiency among 4 HES1 shRNA sequences, based on reduction in HES1 protein levels [10]: most efficient
